These results are taken from patent US20240342292A1, “Compounds for the Degradation of EGFR Kinase” (BeiGene Switzerland GmbH, priority 2021, published 2024).

The target of assay [1] is T1, L858R/T790M/C797S EGFR (Homo sapiens, UniProt P00533, C797S/L858R/T790M).
T1 construct: expressed in transfected cells; host or cells: H1975 clone #25 (lentiviral over-expression, endogenous EGFR knocked out by sgRNA)
The assay can be described thus: EGFR degradation HTRF assay in H1975-clone #25 (LTC) cells. The assay is classed as cell-based. The following applies: 16h treatment; for DC50: H1975 # 25-LTC (L858R/T790M/C797S), HTRF; for Dmax: NCI-H1975, H1975 # 25-LTC (L858R/T790M/C797S), maximum percentage of degradation. In a few lines:
(§1)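 H1975 clones stably overexpressing mutant EGFR by lentivirus, with endogenous EGFR knocked out by sgRNA and homozygosity confirmed by sequencing, were treated 16 h at 37 °C with compounds in 0.2% DMSO medium, 8 doses from 10 uM in 5-fold dilution. Lysates were read by HTRF (665/620 nm); DC50 came from a four-parameter fit.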
In general terms: Time-resolved FRET reads energy transfer from a long-lived donor to a nearby acceptor.

The subject of assay [2] is Del19/T790M/C797S EGFR. The assay can be described thus: EGFR degradation HTRF assay in H1975-clone #28 (DTC) cells. The assay is classed as cell-based. The following applies: H1975 # 28 DTC (Del19/T790M/C797S), 16h treatment; for DC50: HTRF; for Dmax (%): maximum percentage of degradation. In a few lines:
as §1

T1 sequence (P00533 25-1210 T790M/C797S/L858R): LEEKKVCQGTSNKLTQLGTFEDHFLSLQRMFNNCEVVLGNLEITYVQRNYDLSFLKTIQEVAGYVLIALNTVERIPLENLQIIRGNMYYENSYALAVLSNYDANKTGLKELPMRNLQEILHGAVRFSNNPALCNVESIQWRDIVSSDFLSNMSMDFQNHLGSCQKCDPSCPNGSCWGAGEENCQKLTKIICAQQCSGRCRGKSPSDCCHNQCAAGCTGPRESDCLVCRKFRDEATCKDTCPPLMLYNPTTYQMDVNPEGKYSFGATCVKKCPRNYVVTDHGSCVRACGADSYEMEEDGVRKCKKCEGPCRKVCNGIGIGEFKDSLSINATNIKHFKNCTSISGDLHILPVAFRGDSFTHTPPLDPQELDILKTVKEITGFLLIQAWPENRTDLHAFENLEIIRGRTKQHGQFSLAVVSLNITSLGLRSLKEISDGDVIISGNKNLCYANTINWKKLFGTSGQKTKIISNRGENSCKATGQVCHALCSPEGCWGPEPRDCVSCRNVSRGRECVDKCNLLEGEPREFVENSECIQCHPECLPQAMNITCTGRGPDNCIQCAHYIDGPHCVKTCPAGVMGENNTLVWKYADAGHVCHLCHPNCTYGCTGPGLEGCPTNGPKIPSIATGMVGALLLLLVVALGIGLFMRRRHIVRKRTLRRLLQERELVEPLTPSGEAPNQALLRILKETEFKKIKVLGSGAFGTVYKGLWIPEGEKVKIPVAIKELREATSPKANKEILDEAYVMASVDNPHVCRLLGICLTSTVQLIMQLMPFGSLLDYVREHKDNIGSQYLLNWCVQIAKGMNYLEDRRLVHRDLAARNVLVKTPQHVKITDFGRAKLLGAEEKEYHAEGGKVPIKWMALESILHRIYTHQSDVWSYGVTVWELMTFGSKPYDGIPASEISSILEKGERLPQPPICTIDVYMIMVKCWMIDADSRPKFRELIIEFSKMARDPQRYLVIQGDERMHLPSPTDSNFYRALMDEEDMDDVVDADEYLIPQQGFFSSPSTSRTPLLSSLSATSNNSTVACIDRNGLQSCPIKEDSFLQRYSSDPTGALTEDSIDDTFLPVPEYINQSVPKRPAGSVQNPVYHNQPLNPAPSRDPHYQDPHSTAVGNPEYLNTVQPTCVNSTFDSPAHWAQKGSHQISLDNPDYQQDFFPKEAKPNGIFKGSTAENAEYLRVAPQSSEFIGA

In assay [1], `Cc1cc2cc(n1)-c1cnn(C)c1OCCC[C@@H](C)CN1/C(=N/C2=O)Nc2ccc(C(=O)N(C)[C@H]3CCN(CCc4cc(F)c([C@H]5CCC(=O)NC5=O)c(F)c4)[C@@H](C)C3)cc21` [Example 267, (R,E)-N—((2S,4S)-1-(4-((R)-2,6-dioxopiperidin-3-yl)-3,5-difluorophenethyl)-2-methylpiperidin-4-yl)-N,1^1,2^6,7-tetramethyl-3-oxo-5^2,5^3-dihydro-1^1H,5^1H-11-oxa-4-aza-5(2,1)-benzo[d]imidazola-2(2,4)-pyridina-1(4,5)-pyrazolacycloundecaphane-5^6-carboxamide] returned a half-maximal degradation concentration (DC50) of 0.602 nM and a maximal degradation (Dmax) of 91.7%. In assay [2], half-maximal degradation (DC50) was put at 0.624 nM and the “Dmax (%)” value was determined as 76.64%.

Regarding `Cc1cc2cc(n1)-c1cnn(C)c1OCCC[C@@H](C)CN1/C(=N/C2=O)Nc2ccc(N(C)C3CN(C4CCN(c5cc(F)c([C@H]6CCC(=O)NC6=O)c(F)c5)CC4)C3)cc21` [Example 438, (R)-3-(2,6-difluoro-4-(4-(3-(methyl((R,E)-1^1,2^6,7-trimethyl-3-oxo-5^2,5^3-dihydro-1^1H,5^1H-11-oxa-4-aza-5(2,1)-benzo[d]imidazola-2(2,4)-pyridina-1(4,5)-pyrazolacycloundecaphane-5^6-yl)amino)azetidin-1-yl)piperidin-1-yl)phenyl)piperidine-2,6-dione], in assay [1], the 50% degradation concentration (DC50) stood at 0.964 nM and the greatest degradation seen (Dmax) was 85.6%. In assay [2], half-maximal degradation (DC50) was put at 0.983 nM and the “Dmax (%)” value amounted to 72.51%.

On to `Cc1cc2cc(n1)-c1cnn(C)c1OCCC[C@@H](C)CN1/C(=N/C2=O)Nc2ccc(C(=O)N(C)C[C@H]3CCN(CCc4cc(F)c([C@H]5CCC(=O)NC5=O)c(F)c4)CC3(F)F)cc21` [Example 274, (R,E)-N—(((R)-1-(4-((R)-2,6-dioxopiperidin-3-yl)-3,5-difluorophenethyl)-3,3-difluoropiperidin-4-yl)methyl)-N,1^1,2^6,7-tetramethyl-3-oxo-5^2,5^3-dihydro-1^1H,5^1H-11-oxa-4-aza-5(2,1)-benzo[d]imidazola-2(2,4)-pyridina-1(4,5)-pyrazolacycloundecaphane-5^6-carboxamide], for which, in assay [1], the DC50 worked out at 1.63 nM and the Dmax was found to be 69.2%. In assay [2], it took 0.691 nM to reach half-maximal degradation (DC50) and the “Dmax (%)” value came out at 48.56%.

For `Cc1cc2cc(n1)-c1cnn(C)c1OCCC[C@@H](C)CN1/C(=N/C2=O)Nc2ccc(CN3CCN(C(=O)C4CN(c5ccc(F)c6c5n(C)c(=O)n6C5CCC(=O)NC5=O)C4)CC3)cc21` (stereo partly drawn) [Example 94, 3-(7-fluoro-3-methyl-2-oxo-4-(3-(4-(((R,E)-1^1,2^6,7-trimethyl-3-oxo-5^2,5^3-dihydro-1^1H,5^1H-11-oxa-4-aza-5(2,1)-benzo[d]imidazola-2(2,4)-pyridina-1(4,5)-pyrazolacycloundecaphane-5^6-yl)methyl)piperazine-1-carbonyl)azetidin-1-yl)-2,3-dihydro-1H-benzo[d]imidazol-1-yl)piperidine-2,6-dione], in assay [1], the half-maximal degradation concentration (DC50) was 0.5 nM and the Dmax came out at 90.6%. In assay [2], the DC50 was 0.7 nM and the “Dmax (%)” value is recorded as 80.5%.

Consider `Cc1cc2cc(n1)-c1cnn(C)c1OCCC[C@@H](C)CN1/C(=N/C2=O)Nc2ccc(N(C)C3CCN(C(=O)[C@@H]4CCN(c5cc(F)c([C@H]6CCC(=O)NC6=O)c(F)c5)C4)CC3)cc21` [Example 172, (R)-3-(2,6-difluoro-4-((R)-3-(4-(methyl((R,E)-1^1,2^6,7-trimethyl-3-oxo-5^2,5^3-dihydro-1^1H,5^1H-11-oxa-4-aza-5(2,1)-benzo[d]imidazola-2(2,4)-pyridina-1(4,5)-pyrazolacycloundecaphane-5^6-yl)amino)piperidine-1-carbonyl)pyrrolidin-1-yl)phenyl)piperidine-2,6-dione], for which, in assay [1], it took 0.954 nM to reach half-maximal degradation (DC50) and the Dmax came out at 90.6%. For the same molecule, in assay [2], the DC50 came to 0.663 nM and the “Dmax (%)” value was 75.08%.

As to `Cc1cc2cc(n1)-c1cnn(C)c1OCCC[C@@H](C)CN1/C(=N/C2=O)Nc2ccc(N3CCN([C@H]4C[C@@H](Nc5cc(F)c([C@H]6CCC(=O)NC6=O)c(F)c5)C4)CC3)cc21` [Example 445, (R)-3-(2,6-difluoro-4-(((1 S,3S)-3-(4-((R,E)-1^1,2^6,7-trimethyl-3-oxo-5^2,5^3-dihydro-1^1H,5^1H-11-oxa-4-aza-5(2,1)-benzo[d]imidazola-2(2,4)-pyridina-1(4,5)-pyrazolacycloundecaphane-5^6-yl)piperazin-1-yl)cyclobutyl)amino)phenyl)piperidine-2,6-dione], in assay [1], half-maximal degradation (DC50) was put at 0.559 nM and the Dmax stood at 84.5%. For the same molecule, in assay [2], half-maximal degradation (DC50) was put at 2.14 nM and the “Dmax (%)” value is 74.88%.

Regarding `Cc1cc2cc(n1)-c1cnn(C)c1OCCC[C@@H](C)CN1/C(=N/C2=O)Nc2ccc(N3CCN(C4CCN(c5cc(F)c([C@H]6CCC(=O)NC6=O)c(F)c5)CC4)C[C@H]3C)cc21` [Example 384, (R)-3-(2,6-difluoro-4-(4-((R)-3-methyl-4-((R,E)-1^1,2^6,7-trimethyl-3-oxo-5^2,5^3-dihydro-1^1H,5^1H-11-oxa-4-aza-5(2,1)-benzo[d]imidazola-2(2,4)-pyridina-1(4,5)-pyrazolacycloundecaphane-5^6-yl)piperazin-1-yl)piperidin-1-yl)phenyl)piperidine-2,6-dione], in assay [1], the DC50 was found to be 1.67 nM and the Dmax was 87.7%. Besides, in assay [2], the 50% degradation concentration (DC50) is 1.5 nM and the “Dmax (%)” value is recorded as 75.83%.

As for `Cc1cc2cc(n1)-c1cnn(C)c1OCCC[C@@H](C)CN1/C(=N/C2=O)Nc2ccc(C(=O)N[C@H]3CCN(CCc4cc(F)c([C@H]5CCC(=O)NC5=O)c(F)c4)C[C@@H]3F)cc21` [Example 342, (R,E)-N—((3S,4S)-1-(4-((R)-2,6-dioxopiperidin-3-yl)-3,5-difluorophenethyl)-3-fluoropiperidin-4-yl)-1^1,2^6,7-trimethyl-3-oxo-5^2,5^3-dihydro-1^1H,5^1H-11-oxa-4-aza-5(2,1)-benzo[d]imidazola-2(2,4)-pyridina-1(4,5)-pyrazolacycloundecaphane-5^6-carboxamide], in assay [1], the 50% degradation concentration (DC50) is 0.62 nM and the maximal degradation (Dmax) is 90.8%. Also, in assay [2], the half-maximal degradation concentration (DC50) stood at 0.607 nM and the “Dmax (%)” value amounted to 77.52%.

Consider `Cc1cc2cc(n1)-c1cnn(C)c1OCCC[C@@H](C)CN1/C(=N/C2=O)Nc2ccc(N3CCN(CCN(C)c4cc(F)c([C@H]5CCC(=O)NC5=O)c(F)c4)CC3)cc21` [Example 407, (R)-3-(2,6-difluoro-4-(methyl(2-(4-((R,E)-1^1,2^6,7-trimethyl-3-oxo-5^2,5^3-dihydro-1^1H,5^1H-11-oxa-4-aza-5(2,1)-benzo[d]imidazola-2(2,4)-pyridina-1(4,5)-pyrazolacycloundecaphane-5^6-yl)piperazin-1-yl)ethyl)amino)phenyl)piperidine-2,6-dione], for which, in assay [1], the DC50 is 2.29 nM and the Dmax was determined as 87.9%. Further, in assay [2], it took 2.09 nM to reach half-maximal degradation (DC50) and the “Dmax (%)” value is recorded as 78.49%.

As to `Cc1cc2cc(n1)-c1cnn(C)c1OCCC[C@@H](C)CN1/C(=N/C2=O)Nc2ccc(N3CCN(C4CCN(c5ccc6c(c5)CN([C@H]5CCC(=O)NC5=O)C6=O)CC4)CC3)cc21` [Example 396, (S)-3-(1-oxo-5-(4-(4-((R,E)-1^1,2^6,7-trimethyl-3-oxo-5^2,53-dihydro-1^1H,5^1H-11-oxa-4-aza-5(2,1)-benzo[d]imidazola-2(2,4)-pyridina-1(4,5)-pyrazolacycloundecaphane-5^6-yl)piperazin-1-yl)piperidin-1-yl)isoindolin-2-yl)piperidine-2,6-dione], in assay [1], the DC50 came out at 0.622 nM and the greatest degradation seen (Dmax) worked out at 83.6%. In addition, in assay [2], it took 0.681 nM to reach half-maximal degradation (DC50) and the “Dmax (%)” value amounted to 63.49%.

`Cc1cc2cc(n1)-c1cnn(C)c1OCCC[C@@H](C)CN1/C(=N/C2=O)Nc2ccc(C(=O)N3CCN(C4CCN(c5cc(F)c([C@H]6CCC(=O)NC6=O)c(F)c5)CC4)CC3)cc21` [Example 303, (R)-3-(2,6-difluoro-4-(4-(4-((R,E)-1^1,2^6,7-trimethyl-3-oxo-5^2,5^3-dihydro-1^1H,5^1H-11-oxa-4-aza-5(2,1)-benzo[d]imidazola-2(2,4)-pyridina-1(4,5)-pyrazolacycloundecaphane-5^6-carbonyl)piperazin-1-yl)piperidin-1-yl)phenyl)piperidine-2,6-dione]: in assay [1], half-maximal degradation (DC50) was put at 0.582 nM and the Dmax was determined as 80.9%. In addition, in assay [2], half-maximal degradation (DC50) was put at 0.246 nM and the “Dmax (%)” value is 63.64%.

In assay [1], `COC[C@@H]1CN(Cc2ccc3c(c2)N2C[C@H](C)CCCOc4c(cnn4C)-c4cc(cc(C)n4)C(=O)/N=C/2N3)CCN1C(=O)[C@@H]1CCN(c2cc(F)c([C@H]3CCC(=O)NC3=O)c(F)c2)C1` [Example 202, (R)-3-(2,6-difluoro-4-((R)-3-((S)-2-(methoxymethyl)-4-(((R,E)-1^1,2^6,7-trimethyl-3-oxo-5^2,5^3-dihydro-1^1H,5^1H-li-oxa-4-aza-5(2,1)-benzo[d]imidazola-2(2,4)-pyridina-(4,5)-pyrazolacycloundecaphane-5^6-yl)methyl)piperazine-1-carbonyl)pyrrolidin-1-yl)phenyl)piperidine-2,6-dione] displayed a DC50 of 0.89 nM and a maximal degradation (Dmax) of 78.8%. In assay [2], the DC50 turned out to be 1.32 nM and the “Dmax (%)” value is 72.07%.

In general, DC50 refers to the midpoint of the concentration-degradation curve. A word on the Dmax: it is the greatest extent of degradation seen. A low value points to shallow degradation.
